Data taken from publication PMC10053440, “Semi-Synthesis and Biological Evaluation of 25(R)-26-Acetoxy-3β,5α-Dihydroxycholest-6-One” (Marine Drugs, 2023).

Columns and labels:
[1] = tested on: K-562 (human myeloid leukemia cell); assay: CCK-8 anti-proliferation assay, K-562; assay type: cell-based; details: 48 h, mean ± SEM; for inhibition at 20 µM: K562, at 20 µM; for Inhibition Rate (%): at 20 µM
Experimental: (§1) One concentration was set for each sample during preliminary screening and three multiple holes were set for each concentration. Eight concentration gradients were set for each sample for IC50 determination and three multiple holes were set for each concentration. […] The absorbance was measured at 450 nm with an enzyme labeling instrument and the original data and results were recorded. […] Doxorubicin was used as a positive control. All the cancer cell lines were obtained from Qingdao AC biotechnology Co., LTD, Qingdao, China.

[2] = tested on: A549 (human lung adenocarcinoma cell); assay: CCK-8 anti-proliferation assay, A549; assay type: cell-based; details: A549, 48 h, mean ± SEM, read-out: Inhibition Rate (%)
Experimental: as §1

[3] = tested on: MKN-45 (human gastric cancer cell); assay: CCK-8 anti-proliferation assay, MKN-45; assay type: cell-based; details: 48 h, mean ± SEM, read-out: Inhibition Rate (%)
Experimental: as §1

[4] = tested on: HCT 116 (human colorectal cancer cell); assay: CCK-8 anti-proliferation assay, HCT 116; assay type: cell-based; details: 48 h, mean ± SEM, read-out: Inhibition Rate (%)
Experimental: as §1

[5] = tested on: HeLa (human cervical cancer cell); assay: CCK-8 anti-proliferation assay, HeLa; assay type: cell-based; details: 48 h, mean ± SEM, read-out: Inhibition Rate (%)
Experimental: as §1

[6] = tested on: 786-O (human renal cancer cell); assay: CCK-8 anti-proliferation assay, 786-O; assay type: cell-based; details: 48 h, mean ± SEM, read-out: Inhibition Rate (%); for inhibition at 20 µM: 786-0, at 20 µM
Experimental: as §1

[7] = tested on: TE-1 (human esophageal cancer cell); assay: CCK-8 anti-proliferation assay, TE-1; assay type: cell-based; details: 48 h, mean ± SEM, read-out: Inhibition Rate (%)
Experimental: as §1

[8] = tested on: 5637 (HTB-9) (human bladder cancer cell); assay: CCK-8 anti-proliferation assay, 5637 (HTB-9); assay type: cell-based; details: for IC50: CCK-8, 48 h, read-out: IC50 against 5637 (HTB-9) cells
Experimental: as §1

[9] = tested on: GBC-SD (human gallbladder carcinoma cell); assay: CCK-8 anti-proliferation assay, GBC-SD; assay type: cell-based; details: 48 h, mean ± SEM, read-out: Inhibition Rate (%)
Experimental: as §1

[10] = tested on: L-02 (human hepatocyte cell); assay: CCK-8 anti-proliferation assay, L-02; assay type: cell-based; details: L-02 normal liver cells, 48 h, mean ± SEM, read-out: Inhibition Rate (%)
Experimental: as §1

[11] = tested on: MCF7 (human breast cancer cell); assay: CCK-8 anti-proliferation assay, MCF7; assay type: cell-based; details: 48 h, mean ± SEM, read-out: Inhibition Rate (%)
Experimental: as §1

[12] = tested on: HepG2 (human liver carcinoma cell); assay: CCK-8 anti-proliferation assay, HepG2; assay type: cell-based; details: for IC50: CCK-8, 48 h, read-out: IC50 against HepG2 cells
Experimental: as §1

[13] = tested on: SF126 (human glioblastoma cell); assay: CCK-8 anti-proliferation assay, SF126; assay type: cell-based; details: 48 h, mean ± SEM, read-out: Inhibition Rate (%); for inhibition at 20 µM: SF-126, at 20 µM
Experimental: as §1

[14] = tested on: DU145 (human prostate carcinoma cell); assay: CCK-8 anti-proliferation assay, DU145; assay type: cell-based; details: 48 h, mean ± SEM, read-out: Inhibition Rate (%); for inhibition at 20 µM: DU-145, at 20 µM
Experimental: as §1

[15] = tested on: CAL-62 (human thyroid anaplastic carcinoma cell); assay: CCK-8 anti-proliferation assay, CAL-62; assay type: cell-based; details: 48 h, mean ± SEM, read-out: Inhibition Rate (%)
Experimental: as §1

[16] = tested on: PATU8988T (human pancreatic cancer cell); assay: CCK-8 anti-proliferation assay, PATU8988T; assay type: cell-based; details: PaTu 8988t, 48 h, mean ± SEM, read-out: Inhibition Rate (%)
Experimental: as §1

[17] = tested on: HOS (human osteosarcoma cell); assay: CCK-8 anti-proliferation assay, HOS; assay type: cell-based; details: 48 h, mean ± SEM, read-out: Inhibition Rate (%)
Experimental: as §1

[18] = tested on: A-375 (human melanoma cell); assay: CCK-8 anti-proliferation assay, A-375; assay type: cell-based; details: 48 h, mean ± SEM, read-out: Inhibition Rate (%)
Experimental: as §1

A-673 (Ewing sarcoma) = assay: CCK-8 anti-proliferation assay, A-673; assay type: cell-based; details: Homo sapiens, 48 h, mean ± SEM, read-out: Inhibition Rate (%); for inhibition at 20 µM: A673, at 20 µM
Experimental: as §1

[19] = tested on: 293T (human embryonic kidney cell); assay: CCK-8 anti-proliferation assay, 293T; assay type: cell-based; details: HEK-293T, 48 h, mean ± SEM, read-out: Inhibition Rate (%)
Experimental: as §1

[20] = tested on: respiratory syncytial virus (RSV); assay: Anti-RSV activity assay (RT-qPCR); assay type: cell-based; details: human respiratory syncytial virus, HEp-2 cells, mean ± SEM, read-out: Inhibition rate (%) of RSV replication
From the text: Remdesivir was selected and evaluated as a positive control.

[21] = tested on: respiratory syncytial virus (RSV); parameters: method as in PMID 24882250; details: read-out: anti-RSV IC50; cited from earlier work
[22] = Homo sapiens, read-out: Inhibition Rate (%)
[23] = 5637 (HTB-9), 48 h, mean ± SEM, read-out: Inhibition Rate (%)
[24] = 48 h, mean ± SEM, read-out: Inhibition Rate (%)

Structure (SMILES) | inhibition at 10 µM [20] [%] | IC50 [21] [µM] | inhibition at 20 µM [1, 22] [%] | Inhibition Rate (%) [1] | inhibition at 20 µM [3] [%] | inhibition at 20 µM [4] [%] | inhibition at 20 µM [5] [%] | inhibition at 20 µM [6] [%] | inhibition at 20 µM [7] [%] | inhibition at 20 µM [8, 23] [%] | inhibition at 20 µM [9] [%] | inhibition at 20 µM [10] [%] | inhibition at 20 µM [11] [%] | inhibition at 20 µM [12, 24] [%] | inhibition at 20 µM [13] [%] | inhibition at 20 µM [14] [%] | inhibition at 20 µM [15] [%] | inhibition at 20 µM [16] [%] | inhibition at 20 µM [17] [%] | inhibition at 20 µM [18] [%] | also measured
COc1cccc2c1C(=O)c1c(O)c3c(c(O)c1C2=O)C[C@@](O)(C(=O)CO)C[C@@H]3O[C@H]1C[C@H](N)[C@H](O)[C@H](C)O1 [Doxorubicin, reference compound] |  |  |  |  |  |  |  |  |  |  |  |  |  |  |  |  |  |  |  |  | inhibition at 10 µM ([1]; Homo sapiens, K562, at 10 µM, read-out: Inhibition Rate (%)): 67.5 ± 1%; inhibition at 10 µM ([2]; at 10 µM): 75.9 ± 2.5%; inhibition at 10 µM ([3]; at 10 µM): 89.8 ± 0.5%; inhibition at 10 µM ([4]; at 10 µM): 88.9 ± 1.5%; inhibition at 10 µM ([5]; at 10 µM): 97.7 ± 0.4%; inhibition at 10 µM ([6]; 786-0, at 10 µM): 86.3 ± 1.9%; inhibition at 10 µM ([7]; at 10 µM): 83.3 ± 1.1%; inhibition at 10 µM ([8]; 5637 (HTB-9), at 10 µM, 48 h, mean ± SEM, read-out: Inhibition Rate (%)): 99.3 ± 0.3%; inhibition at 10 µM ([9]; at 10 µM): 76.7 ± 1.5%; inhibition at 10 µM ([10]; at 10 µM): 99.2 ± 0.1%; inhibition at 10 µM ([11]; at 10 µM): 55.9 ± 1.7%; inhibition at 10 µM ([12]; at 10 µM, 48 h, mean ± SEM, read-out: Inhibition Rate (%)): 95.9 ± 1.9%; inhibition at 10 µM ([13]; SF-126, at 10 µM): 97.1 ± 1%; inhibition at 10 µM ([14]; DU-145, at 10 µM): 76.4 ± 1.6%; inhibition at 10 µM ([15]; at 10 µM): 92.6 ± 1.3%; inhibition at 10 µM ([16]; at 10 µM): 98.4 ± 0.6%; inhibition at 10 µM ([17]; at 10 µM): 98.4 ± 0.9%; inhibition at 10 µM ([18]; at 10 µM): 95.3 ± 1%; inhibition at 10 µM (A-673 (Ewing sarcoma); A673, at 10 µM): 98.7 ± 0.6%; inhibition at 10 µM ([19]; at 10 µM): 88.2 ± 1.2%
CCC(CC)COC(=O)[C@H](C)N[P@](=O)(OC[C@H]1O[C@@](C#N)(c2ccc3c(N)ncnn23)[C@H](O)[C@@H]1O)Oc1ccccc1 [Remdesivir, reference compound] | 91.8 ± 0.5 |  |  |  |  |  |  |  |  |  |  |  |  |  |  |  |  |  |  |  | 
CC(=O)OC[C@@H](C)C/C=C/[C@@H](C)[C@H]1CC[C@H]2[C@@H]3CC(=O)[C@@]4(O)C[C@@H](O)CC[C@]4(C)[C@H]3CC[C@]12C [compound 1] |  | 0.78 |  |  |  |  |  |  |  |  |  |  |  |  |  |  |  |  |  |  | 
CC(=O)OC[C@@H](C)[C@H](C)/C=C/[C@@H](C)[C@H]1CC[C@H]2[C@@H]3CC(=O)[C@@]4(O)C[C@@H](O)CC[C@]4(C)[C@H]3CC[C@]12C [compound 2] |  | 0.19 |  |  |  |  |  |  |  |  |  |  |  |  |  |  |  |  |  |  | 
CC(=O)OC[C@H](C)[C@H](C)/C=C/[C@@H](C)[C@H]1CC[C@H]2[C@@H]3CC(=O)[C@@]4(O)C[C@@H](O)CC[C@]4(C)[C@H]3CC[C@]12C [compound 3] |  | 0.19 |  |  |  |  |  |  |  |  |  |  |  |  |  |  |  |  |  |  | 
CC(=O)OCC(C)/C=C/[C@@H](C)[C@H]1CC[C@H]2[C@@H]3CC(=O)[C@@]4(O)C[C@@H](O)CC[C@]4(C)[C@H]3CC[C@]12C (some centres unmarked) [compound 4] |  | 3.23 |  |  |  |  |  |  |  |  |  |  |  |  |  |  |  |  |  |  | 
C[C@@H](CO)CCC[C@@H](C)[C@H]1[C@@H](O)C[C@H]2[C@@H]3CC=C4C[C@@H](O)CC[C@]4(C)[C@H]3CC[C@]12C [compound 8, (3S,8S,9S,10R,13S,14S,16S,17R)-17-((2R,6R)-7-Hydroxy-6-Methylheptan-2-yl)-10,13-Dimethyl-2,3,4,7,8,9,10,11,12,13,14,15,16,17-Tetradecahydro-1H-Cyclopenta[a]Phenanthrene-3,16-diol] | 24.9 ± 2.6 |  | 7.2 ± 2.2 | did not exhibit any anti-proliferative activities | 54.4 ± 1.9 | 61.7 ± 2.1 | 49.7 ± 3.6 | 69 ± 1.8 | 34 ± 3.8 | 75.1 ± 0.8 | 26.8 ± 1.3 | 8.1 ± 1.3 | 31.2 ± 1.4 | 76.8 ± 1.3 | 30.7 ± 2.4 | 26 ± 1.7 | 28 ± 4 | 62.7 ± 2 | 2.7 ± 4 | 72.3 ± 0.6 | inhibition at 20 µM [2]: 53 ± 2.7%; IC50 [8]: 5.8 µM; IC50 [12]: 12 µM; inhibition at 20 µM (A-673 (Ewing sarcoma)): 51.9 ± 2.8%; inhibition at 20 µM [19]: 42.4 ± 2.1%
C[C@@H](CO)CCC[C@@H](C)[C@H]1CC[C@H]2[C@@H]3CC=C4C[C@@H](O)CC[C@]4(C)[C@H]3CC[C@]12C [compound 11, (3S,8S,9S,10R,13R,14S,17R)-17-((2R,6R)-7-Hydroxy-6-Methylheptan-2-yl)-10,13-Dimethyl-2,3,4,7,8,9,10,11,12,13,14,15,16,17-Tetradecahydro-1H-Cyclopenta[a]Phenanthren-3-ol] | 22.2 ± 3.9 |  | 13.1 ± 1.8 | did not exhibit any anti-proliferative activities | 53.8 ± 1.6 | 19.8 ± 1.4 | 14.9 ± 2.2 | 65.9 ± 2.4 | 27.7 ± 0.6 | 80.5 ± 2.5 | 10.4 ± 3.3 | 2.8 ± 2.1 | 14.1 ± 0.5 | 64.2 ± 2.5 | 11.7 ± 2.9 | 18.4 ± 3.7 | 12.5 ± 3.9 | 63.3 ± 4.2 | 9.3 ± 4.3 | 60.8 ± 1.4 | inhibition at 20 µM [2]: ≤ 50%; IC50 [8]: 3 µM; IC50 [12]: 5.6 µM; inhibition at 20 µM (A-673 (Ewing sarcoma)): 26.5 ± 2.1%; inhibition at 20 µM [19]: -18.2 ± 1.3%
CC(=O)OC[C@H](C)CCC[C@@H](C)[C@H]1CC[C@H]2[C@@H]3C[C@@H](O)[C@@]4(O)C[C@@H](O)CC[C@]4(C)[C@H]3CC[C@]12C [compound 13, (2R,6R)-2-Methyl-6-((3S,5R,6R,8S,9S,10R,13R,14S,17R)-3,5,6-Trihydroxy-10,13-Dimethylhexadecahydro-1H-Cyclopenta[a]Phenanthren-17-yl) Heptyl Acetate] | 13.6 ± 2.1 |  | 7.8 ± 2.3 | did not exhibit any anti-proliferative activities | 52.7 ± 2.4 | 19.3 ± 1.2 | -2.3 ± 1.7 | 20.5 ± 1.3 | 13.5 ± 2.6 | 52.2 ± 4.5 | 6 ± 2.4 | 6.3 ± 3.2 | 19 ± 1.1 | 58 ± 1.2 | 4.7 ± 1.3 | -0.4 ± 3.9 | 7.5 ± 2.7 | 53.6 ± 1.7 | 52.6 ± 1.5 | 54.8 ± 1.7 | inhibition at 20 µM (A-673 (Ewing sarcoma)): 66.3 ± 3.2%; inhibition at 20 µM [19]: 37.3 ± 2.7%; melting point: 201 to 202 °C
